Results as given in patent US4027039A (priority 1975, dated 1977).
Where “and” joins values, the source holds several entries; their conditions need not be identical. Equal entries are not always repeated. Entries after “also recorded” stand apart in the source; their conditions may differ. Where two headings read alike, the source gives them in different places.

Experiments:
[1] = tested on: Herpes virus
[2] = tested on: viral infections; assay: Antiviral screening in animals, general statements; conditions: mouse, in vivo
[3] = tested on: Influenza PR 8 virus; assay: Influenza PR 8 in mice, oral; schedule by table; late read day 6 (Table 37), 7 (33, 36), 8 (32, 35, 47), 10 (38); control fraction 18/20 (Table 32), 19/20 (Table 35), else 100%; assay type: in vivo, mouse
[4] = tested on: Influenza B Massachusetts virus; assay: Influenza B Mass. in mice, oral; late read day 5 (Table 39), 7 (Table 40), 11 (Tables 61, 65); control fraction 16/20 (Table 61), else 100%; assay type: in vivo, mouse
Experimental: A portion of a commercially available sample of amantadine was recrystallized from isopropanol. The activity of the material against Influenza B Mass. was tested for the sample as obtained, the recrystallized portion, and the mother liquor obtained from recrystallizing the portion.

[5] = tested on: Influenza B Maryland virus; assay: Influenza B Maryland in mice, oral; assay type: in vivo, mouse
[6] = tested on: Influenza, Ann Arbor virus; assay: Influenza Ann Arbor in mice, oral; schedule by table; late read day 5 (Tables 15, 25, 29, 30), 6 (18, 20, 22, 23, 26, 27, 28, 54), 7 (14, 19, 21, 24, 53, 56), 8 (16, 17, 51), 9 (11, 55); assay type: in vivo, mouse

NNC(=O)c1ccncc1 [Isoniazid, isoniazid, reference compound]
No. animals surviving after 6-9 days ([1]; total dose .0000005 μg): 4
No. animals surviving when 100% (or given fraction) of controls are dead ([1]; total dose .0000005 μg): 1
Survivors ([1]; total dose .0000005 μg): 1
No. animals surviving when 100% (or given fraction) of controls are dead ([1]; total dose .005 μg): 1
No. animals surviving after 6-9 days ([1]; total dose .05 μg): 4
No. animals surviving when 100% (or given fraction) of controls are dead ([1]; total dose .05 μg): 1
Survivors ([1]; total dose .05 μg): 1
activity in words [2]: active
maximum protective effect, treated animals survived [2]: 30%
No. animals surviving after 6-10 days ([3]; total dose 5 μg): 5
No. animals surviving after 6-10 days ([3]; total dose .0000005 μg): 1
No. animals surviving when 100% (or given fraction) of controls are dead ([3]; total dose .0000005 μg): 0
Survivors ([3]; total dose .0000005 μg): 0
No. animals surviving when 100% (or given fraction) of controls are dead ([3]; total dose .000005 μg): 1
Survivors ([3]; total dose .000005 μg): 0
No. animals surviving after 6-10 days ([3]; total dose .00005 μg): 0
No. animals surviving when 100% (or given fraction) of controls are dead ([3]; total dose .00005 μg): 0
Survivors ([3]; total dose .00005 μg): 0
No. animals surviving after 6-10 days ([3]; total dose .0005 μg): 0
No. animals surviving when 100% (or given fraction) of controls are dead ([3]; total dose .0005 μg): 0
Survivors ([3]; total dose .0005 μg): 0
No. animals surviving after 6-10 days ([3]; total dose .005 μg): 1
No. animals surviving when 100% (or given fraction) of controls are dead ([3]; total dose .005 μg): 1
Survivors ([3]; total dose .005 μg): 1
No. animals surviving when 100% (or given fraction) of controls are dead ([3]; total dose .05 μg): 0
Survivors ([3]; total dose .05 μg): 1
No. animals surviving when 100% (or given fraction) of controls are dead ([3]; total dose .5 μg): 1
Survivors ([3]; total dose .5 μg): 1
No. animals surviving after 5 days (Table 61: 11 days) ([4]; total dose .000005 μg (5 pg)): 3
No. animals surviving when 100% (Table 61: 16/20) of controls are dead ([4]; total dose .000005 μg (5 pg)): 0
Survivors ([4]; total dose .000005 μg (5 pg)): 0
No. animals surviving after 5 days (Table 61: 11 days) ([4]; total dose .00005 μg (50 pg)): 2
No. animals surviving when 100% (Table 61: 16/20) of controls are dead ([4]; total dose .00005 μg (50 pg)): 1
Survivors ([4]; total dose .00005 μg (50 pg)): 0
No. animals surviving after 5 days (Table 61: 11 days) ([4]; total dose .0005 μg (500 pg)): 3
No. animals surviving when 100% (Table 61: 16/20) of controls are dead ([4]; total dose .0005 μg (500 pg)): 2
Survivors ([4]; total dose .0005 μg (500 pg)): 0
No. animals surviving after 5 days (Table 61: 11 days) ([4]; total dose .005 μg (5 ng)): 5
No. animals surviving when 100% (Table 61: 16/20) of controls are dead ([4]; total dose .005 μg (5 ng)): 1
Survivors ([4]; total dose .005 μg (5 ng)): 0
No. animals surviving after 5 days (Table 61: 11 days) ([4]; total dose .05 μg (50 ng)): 3
No. animals surviving when 100% (Table 61: 16/20) of controls are dead ([4]; total dose .05 μg (50 ng)): 1
Survivors ([4]; total dose .05 μg (50 ng)): 0
No. animals surviving after 5 days (Table 61: 11 days) ([4]; total dose .5 μg (500 ng)): 3
No. animals surviving when 100% (Table 61: 16/20) of controls are dead ([4]; total dose .5 μg (500 ng)): 0
Survivors ([4]; total dose .5 μg (500 ng)): 0

CN1C(=O)/C(=N\NC(N)=S)c2ccccc21 [Methisazone, 1-methylindole-2,3-dione, 3-thiosemicarbazone, reference compound]
No. animals surviving after 6-9 days ([1]; total dose .0000005 μg): 4 and 3
No. animals surviving after 6-9 days ([1]; total dose .05 μg): 1
No. animals surviving when 100% (or given fraction) of controls are dead ([1]; total dose .05 μg): 0
Survivors ([1]; total dose .05 μg): 0
activity in words [2]: active against pox virus infections of mice; also recorded: activity
activity in words ([5]; mouse, in vivo): active
No. animals surviving when 18/20 of controls are dead ([5]; total dose 6 ng): 4
Survivors ([5]; total dose 6 ng): 2
No. animals surviving when 18/20 of controls are dead ([5]; total dose 60 ng): 4
Survivors ([5]; total dose 60 ng): 2
No. animals surviving when 18/20 of controls are dead ([5]; total dose 600 ng): 2
Survivors ([5]; total dose 600 ng): 2
No. animals surviving when 18/20 of controls are dead ([5]; total dose 6 μg): 4
Survivors ([5]; total dose 6 μg): 1
No. animals surviving after 5-9 days ([6]; total dose 5 μg): 4
Survivors ([6]; total dose 5 μg): 0
No. animals surviving after 5-9 days ([6]; total dose 50 μg): 3
Survivors ([6]; total dose 50 μg): 0
No. animals surviving after 5-9 days ([6]; total dose .00005 μg): 6
Survivors ([6]; total dose .00005 μg): 0
No. animals surviving after 5-9 days ([6]; total dose .0005 μg): 5
Survivors ([6]; total dose .0005 μg): 0
No. animals surviving after 5-9 days ([6]; total dose .005 μg): 5
Survivors ([6]; total dose .005 μg): 0
No. animals surviving after 5-9 days ([6]; total dose .05 μg): 4
Survivors ([6]; total dose .05 μg): 0
No. animals surviving after 5-9 days ([6]; total dose .5 μg): 6
Survivors ([6]; total dose .5 μg): 0
